Measured values from US20210236468A1, “COMPOSITION FOR PREVENTING OR TREATING CANCER, COMPRISING A VASCULAR DISRUPTING AGENT AND TAXANE COMPOUND” (Chong Kun Dang Pharmaceutical Corp., priority 2018, published 2021).
Marks after values point to notes of the source that are not given here.

How the values were obtained:
H460 cancer cell lines = test: Anti-cancer activity (tumor volume) in H460 lung cancer tissue-transplanted Balb/c nude mice; details: H460 tumor transplant, paclitaxel 20 mg/kg iv, CKD-516 2.5 mg/kg ip, once a week for three weeks, FIG. 5, FIG. 6
Protocol: The four-week old male Balb/c nude mice were purchased from Central Lab Animal Inc.
In 20 to 25 days later, the mice were subjected to euthanasia by means of cervical vertebral dislocation, after which a solid cancer proliferated in the mice was sterilely isolated therefrom to obtain fresh cancer tissues, from which connective tissues, necrotic tissues, skins, etc. were removed.
The cancer tissues were divided by 50 mg in a sterile state, and subcutaneously transplanted into the mice by using a 16-gauge trocar. In 12 days after the transplantation, the mice whose cancer tissues were proliferated up to a certain size, were selected and used for the experiment.
Paclitaxel was dissolved in an excipient (excipient 2), which was prepared by mixing cremophor, ethanol and saline at a ratio of 1:1:8, and prepared in accordance with the administered dose for each group as shown in the following table 4.
The anti-cancer activity was determined based on a tumor volume. The tumor volume was obtained by measuring a long axis and a short axis of the tumor by means of electronic callipers (CD-15CPX, Mitutoyo Corp., Japan) and calculating measured values according to a following equation (twice a week):
Tumor volume (mm^3)=(Long axis length×Short axis length^2)/2.

A-549 cancer cell lines = test: Anti-cancer activity (tumor volume) in A-549 lung cancer xenograft Balb/c nude mice; format: in vivo, human; details: A549 xenograft, docetaxel 2.5 mg/kg ip once a week, CKD-516 4 mg/kg po daily, eight weeks, FIG. 3, FIG. 4
Excerpt: A-549 cancer cell lines (1×10^7 cells), which are human lung cancer cell lines purchased from the ATCC, were subcutaneously injected into the mice. Particularly, a needle point was inserted into mice in the left side before injecting cancer cells, and moved from side to side to inject the cancer cells and to identify that an administered solution was not leaked out, such that a tumorigenesis was observed. Animals whose tumor sizes reached 100 mm^3 to 250 mm^3 were selected and used for an experiment.
Experimental groups were randomly divided as shown in the table 3 above. • Vehicle: Daily for eight weeks, oral administration; • Docetaxel: 2.5 mg/kg, once a week for eight weeks, intraperitoneal administration; • CKD-516: 4 mg/kg, daily for eight weeks, oral administration; and • CKD-516+Docetaxel: CKD-516 (4 mg/kg, daily for eight weeks, oral administration) to be administered first+Docetaxel (2.5 mg/kg, once a week for eight weeks, intraperitoneal administration).
For the tumor volume, statistical processing was performed by using a statistical processing program (GraphPad PRISM® Version 5.0, GraphPad Software, the U.S.).

H1975 cell lines = test: Anti-cancer activity (tumor volume) in H1975 lung cancer xenograft nude mice; format: in vivo, human; details: CKD-516 3 mg/kg ip, twice a week for three weeks; for Tumor volume / tumor growth, result in words: FIG. 1, FIG. 2
Protocol: As a human tumor cell line, a lung cancer cell line, i.e., H1975 cell lines were purchased from the American Type Culture Collections (ATCC). One vial of the cell lines was inserted into an RPMI1640 medium (Gibco, 22400) containing a heatinactivated 10% fetal bovine serum (FBS; Gibco, 10082-742), and cultured in a 5% CO2 incubator at 37° C. The resulting cells were washed with PBS, after which a 10-fold dilution of 2.5% Trypsin-EDTA (Gibco, 15090) was added thereto, such that cells were isolated therefrom. Then, centrifugation was performed (at 1,000 rpm for 5 min), after which supernatant thereof was discarded, such that a cell suspension was obtained by means of a new medium. A survival rate was identified with a microscope to make a preparation in an amount of 1.0×10^7 cells/mL.
The five-week old male […] nude mice (Hsd: Athymic Nude-Foxn1^nu) were purchased from Saeron Bio Inc. (Gyeonggi Province in South Korea).
Thus prepared tumor cell lines were subcutaneously (sc) injected by 0.2 ml (2×10^6 cells) into a back of the mice by using a 26-gauge needle syringe. In about three to four weeks after the injection, animals whose tumor sizes reached 170 mm^3 to 220 mm^3 were selected and used for an experiment.
A comparison between a positive control group and groups dosed with a test substance with regard to a negative control group, and a comparison between the positive control group and the groups dosed with a test substance were verified through One-way ANOVA. At this time, assuming that significance was accepted, a post-hoc test was performed with Duncan test, if an equal variance was accepted, and with Dunnett's test, if the equal variance was not accepted. If p-value is 0.05 or less, significance was accepted, and SPSS 10.1, a statistical program in common use, was used.

[1] = date 4/10, docetaxel 6 mg/kg ip
[2] = date 4/14, docetaxel 6 mg/kg ip
[3] = date 4/17, docetaxel 6 mg/kg ip
[4] = date 4/21, docetaxel 6 mg/kg ip
[5] = date 4/24 (end of experiment), docetaxel 6 mg/kg ip

| SMILES | Tumor volume / tumor growth, result in words (H460 cancer cell lines) | Tumor volume / tumor growth, result in words (A-549 cancer cell lines) | Tumor volume (mm^3), mean (H1975 cell lines; date 4/7, docetaxel 6 mg/kg ip) | Tumor volume (mm^3), mean (H1975 cell lines; [1]) | Tumor volume (mm^3), mean (H1975 cell lines; [2]) | Tumor volume (mm^3), mean (H1975 cell lines; [3]) | Tumor volume (mm^3), mean (H1975 cell lines; [4]) | Tumor volume (mm^3), mean (H1975 cell lines; [5]) | Tumor volume / tumor growth, result in words (H1975 cell lines; docetaxel 6 mg/kg ip) |
| --- | --- | --- | --- | --- | --- | --- | --- | --- | --- |
| COc1cc(C(=O)c2ccc(-c3csc(NC(=O)[C@@H](N)C(C)C)n3)cc2-n2cncn2)cc(OC)c1OC [CKD-516, (S)—N-(4-(3-(1H-1,2,4-triazole-1-yl)-4-(3,4,5-trimethoxybenzoyl)phenyl)thiazole-2-yl)-2-amino-3-methylbutanamide] | showed a similar tendency to the group dosed with paclitaxel | the tumor did not almost grow | 121.8 mm^3 | 146.3 mm^3 | 321.3 mm^3 | 432.4* mm^3 | 504.9 mm^3 | 790.7*** mm^3 | showed a similar tendency to the group dosed with docetaxel |
| CC(=O)O[C@@]12CO[C@@H]1C[C@H](O)[C@@]1(C)C(=O)[C@H](O)C3=C(C)[C@@H](OC(=O)[C@H](O)[C@@H](NC(=O)OC(C)(C)C)c4ccccc4)C[C@@](O)([C@@H](OC(=O)c4ccccc4)[C@H]21)C3(C)C [Docetaxel, docetaxel] | – | no significant difference in a growth rate of the tumor compared to the negative control group | 123.4 mm^3 | 178.0 mm^3 | 309.6 mm^3 | 460.5 mm^3 | 500.2*** mm^3 | 513.9*** mm^3 | a growth of the tumor was decreased over time compared to the negative control group, but the tumor volume was continuously increased |
| CC(=O)O[C@H]1C(=O)[C@@]2(C)[C@H]([C@H](OC(=O)c3ccccc3)[C@]3(O)C[C@H](OC(=O)[C@H](O)[C@@H](NC(=O)c4ccccc4)c4ccccc4)C(C)=C1C3(C)C)[C@]1(OC(C)=O)CO[C@@H]1C[C@@H]2O [paclitaxel] | a growth of the tumor was decreased over time compared to the negative control group, but the tumor volume was continuously increased | – | – | – | – | – | – | – | – |
